In US20260035384A1, “COMPOUND CONTAINING CYCLOHEXYL” (CHIA TAI TIANQING PHARMACEUTICAL GROUP CO., LTD., priority 2022, published 2026):
Where two headings read alike, the source gives them in different places.

What was measured:
[1] = biological target: T1, AR in LNCaP cells (Homo sapiens, UniProt P10275, T878A); experiment: Assay on degradation activity for AR in LNCaP cells (HTRF human androgen receptor detection kit); assay type: cell-based; settings: 24 h incubation; for DC50: HTRF; for Dmax: maximum degradation rate
T1 construct: Assay on Degradation Activity for AR in LNCaP Cells; endogenous in cells; host or cells: LNCaP cells
T1 sequence (P10275 1-920 T878A): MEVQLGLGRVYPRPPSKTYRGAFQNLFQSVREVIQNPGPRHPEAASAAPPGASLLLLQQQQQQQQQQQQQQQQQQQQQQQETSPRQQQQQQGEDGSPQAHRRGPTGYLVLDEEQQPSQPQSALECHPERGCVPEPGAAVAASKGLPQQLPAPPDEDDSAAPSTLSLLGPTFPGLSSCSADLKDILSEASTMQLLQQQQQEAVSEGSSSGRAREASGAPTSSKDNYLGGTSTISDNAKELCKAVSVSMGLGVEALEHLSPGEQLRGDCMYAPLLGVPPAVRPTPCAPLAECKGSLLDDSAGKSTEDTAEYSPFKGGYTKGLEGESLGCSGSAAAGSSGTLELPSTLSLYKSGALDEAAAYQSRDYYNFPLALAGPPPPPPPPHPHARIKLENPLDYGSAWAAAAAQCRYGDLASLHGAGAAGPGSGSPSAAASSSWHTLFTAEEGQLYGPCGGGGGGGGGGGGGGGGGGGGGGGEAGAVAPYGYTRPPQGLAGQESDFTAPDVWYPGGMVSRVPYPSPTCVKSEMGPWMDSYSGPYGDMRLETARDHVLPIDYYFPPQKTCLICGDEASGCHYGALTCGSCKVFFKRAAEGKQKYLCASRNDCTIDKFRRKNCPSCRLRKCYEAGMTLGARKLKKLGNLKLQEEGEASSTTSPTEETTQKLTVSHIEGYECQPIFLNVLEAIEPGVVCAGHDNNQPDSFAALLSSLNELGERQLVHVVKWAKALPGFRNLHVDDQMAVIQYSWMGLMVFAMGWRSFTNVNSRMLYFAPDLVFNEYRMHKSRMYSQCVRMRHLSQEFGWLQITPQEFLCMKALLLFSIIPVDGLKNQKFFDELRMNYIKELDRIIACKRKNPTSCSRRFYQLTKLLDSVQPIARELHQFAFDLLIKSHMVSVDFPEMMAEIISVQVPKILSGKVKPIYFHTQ
Description: The detection was carried out using the HTRF HUMAN ANDROGEN RECEPTOR DETECTION KIT (cisbio, 64ANDRPEG), 4× Supplemented Lysis buffer was prepared using the Blocking reagent stock solution (100×) and Lysis buffer stock solution (4×), and 1× Supplemented Lysis buffer was prepared using the 4× Supplemented Lysis buffer and ddH2O. Premixed antibody solutions were prepared using Detection buffer, Androgen Receptor Eu Cryptate antibody, and Androgen Receptor d2 antibody.
LNCaP cells in a good growth state were taken, washed with PBS, digested with pancreatin, and added with 2% CSS—FBS phenol red-free 1640 complete medium to terminate the digestion. The cells were collected by using a centrifuge tube, adjusted to a cell density of 1×10^6 cells/mL, and seeded in a 96-well plate (100 μL/well). The cells were incubated overnight in a cell incubator. Compounds were added using a nanoliter pipettor such that the final concentrations of the compounds were 500 nM-0.488 nM. Two duplicate wells were set for each concentration, and meanwhile, a control was set. After another 24 h of incubation in the cell incubator, the medium was pipetted out, the 1× Supplemented Lysis buffer was added at 40 μL/well to lyse the cells. After the cells were oscillated for 40 min at room temperature, 16 μL of the cell lysate was added to a 384-well plate, the Premixed antibody solutions were added at 4 μL/well, and the mixture was left to stand at 25° C. for 2 h. Fluorescence values were detected at 665 nm/620 nm using an Envision microplate reader, the four-parameter analysis was performed, the dose-response curves were fit, and DC50 (the concentration of the drug when the degradation rate reaches 50%) and Dmax (the maximum degradation rate) were calculated.

[2] = tested on: LNCaP cells; experiment: Assay on inhibitory activity for LNCaP cell proliferation (CCK-8); assay type: cell-based; settings: 168 h incubation
Description: (§1) LNCaP cells in a good growth state were taken, washed with PBS, digested with pancreatin, and added with 2% CSS—FBS phenol red-free 1640 complete medium to terminate the digestion. The cells were collected by using a centrifuge tube, adjusted to a cell density of 1×10^5 cells/mL, and seeded in a 96-well plate (100 μL/well). Meanwhile, compounds were added using a nanoliter pipettor such that the final concentrations of the compounds were 10000 nM-0.61 nM. Two duplicate wells were set for each concentration, and meanwhile, a control was set. After another 168 h of incubation in the cell incubator, the detection reagent CCK-8 (manufacturer: Dojindo, 10 μL/well) was added.

[3] = Mouse pharmacokinetics; assay type: in vivo, ICR mice; settings: ICR, mouse, plasma; for AUC: read-out: AUC
Description: ICR mice weighing 18-22 g were randomized into groups of 9 after 3-5 days of acclimatization, and then intragastrically given the test compound solution at a dose of 10 mg/kg and intravenously injected with the test compound solution at a dose of 1 mg/kg.
Blood sampling time points for the intragastrical administration group were 15 min, 0.5 h, 1 h, 2 h, 3 h, 4 h, 6 h, 8 h, 10 h, and 24 h, and blood sampling time points for the intravenous injection administration group were […], 15 min, 0.5 h, 1 h, 2 h, 4 h, 6 h, 8 h, 10 h, and 24 h; blood was collected from the orbit to prepare plasma samples to be tested. 30 μL of each of the plasma samples to be tested and a standard curve sample were taken, and an acetonitrile solution containing an internal standard was added. Supernatants were obtained by protein precipitation, diluted, and then assayed by LC/MS/MS. Pharmacokinetic parameters were fitted using a non-compartmental model (see Table 6).

[4] = tested on: VCaP cells; experiment: Assay on inhibitory activity for VCaP cell proliferation (CCK-8); assay type: cell-based; settings: 168 h incubation
Description: as §1, with “2.1 Assay on inhibitory activity for VCaP cell proliferation VCaP” for “LNCaP”, “5%” for “2%”, “DMEM” for “1640”

[5] = po, 10 mg/kg, Mouse i.g. 10 mpk

Row | Structure (SMILES) | IC50 ([2]; Homo sapiens) | IC50 ([4]; Homo sapiens, VCaP, 168 h) | other results
1 | N#Cc1ccc(O[C@H]2CC[C@H](NC(=O)c3ccc(N4CCC(CN5CCc6c(ccc7c(C8CCC(=O)NC8=O)noc67)C5)CC4)nn3)CC2)cc1Cl (stereo partly shown) [Compound 19] | < 1000 nM |  | DC50 [1]: ≤ 20 nM; Dmax [1]: > 80%; clearance ([3]; iv, 1 mg/kg, Mouse i.v. 1 mpk): 5.7 mL/min/kg; half-life ([3]; iv, 1 mg/kg, Mouse i.v. 1 mpk): 7.4 h; AUC ([3]; iv, 1 mg/kg, Mouse i.v. 1 mpk): 2600 ng·h/mL; half-life [3, 5]: 49.9 h; bioavailability ([3]; po, 10 mg/kg, Mouse i.g. 10 mpk vs i.v. 1 mpk): 41.6%; AUC [3, 5]: 10800 ng·h/mL; Cmax ([3]; po, 10 mg/kg, Mouse i.g. 10 mpk, read-out: Cmax): 562 ng/mL
2 | N#Cc1ccc(O[C@H]2CC[C@H](NC(=O)c3ccc(N4CCC(CN5CCc6ccc7c(C8CCC(=O)NC8=O)noc7c6CC5)CC4)nn3)CC2)cc1Cl (stereo partly shown) [Compound 20] | < 1000 nM |  | DC50 [1]: ≤ 20 nM; Dmax [1]: > 80%
3 | N#Cc1ccc(O[C@H]2CC[C@H](NC(=O)c3ccc(N4CCC5(CC4)CC(CN4CCc6ccc7c(C8CCC(=O)NC8=O)noc7c6C4)C5)nn3)CC2)cc1Cl (stereo partly shown) [Compound 35] | < 1000 nM |  | DC50 [1]: ≤ 20 nM; Dmax [1]: > 80%; IC50 ([4]; Homo sapiens): < 100 nM
4 | N#Cc1ccc(O[C@H]2CC[C@H](NC(=O)c3cnc(N4CCC(CN5CCc6ccc7c(C8CCC(=O)NC8=O)noc7c6CC5)CC4)nc3)CC2)cc1Cl (stereo partly shown) [Compound 122] | < 1000 nM | < 100 nM | DC50 [1]: ≤ 20 nM; Dmax [1]: > 80%
5 | N#Cc1ccc(O[C@H]2CC[C@H](NC(=O)c3ccc(N4CCN(CC5Cc6ccc7c(C8CCC(=O)NC8=O)coc7c6C5)CC4)nn3)CC2)cc1Cl (stereo partly shown) [Compound 28] | < 1000 nM | < 100 nM | 
6 | N#Cc1ccc(O[C@H]2CC[C@H](NC(=O)c3cnc(N4CCN(CC5Cc6ccc7c(C8CCC(=O)NC8=O)coc7c6C5)CC4)nc3)CC2)cc1Cl (stereo partly shown) [Compound 137] |  |  | IC50 [4]: < 1000 nM; IC50 [2]: < 1000 nM
7 | N#Cc1ccc(O[C@H]2CC[C@H](NC(=O)c3cnc(N4CCC(CN5CCc6ccc7c(C8CCC(=O)NC8=O)noc7c6C5)CC4)nc3)CC2)cc1Cl (stereo partly shown) [Compound 120] | < 1000 nM | < 1000 nM | 
8 | N#Cc1ccc(O[C@H]2CC[C@H](NC(=O)c3ccc(N4CCC(N5CC(CN6CCc7ccc8c(C9CCC(=O)NC9=O)noc8c7CC6)C5)CC4)nn3)CC2)cc1Cl (stereo partly shown) [Compound 93] | < 1000 nM | < 10 nM | 
9 | N#Cc1ccc(O[C@H]2CC[C@H](NC(=O)c3cnc(N4CCC(CN5CCc6ccc7c(N8CCC(=O)NC8=O)coc7c6C5)CC4)nc3)CC2)cc1Cl [Compound 139] | < 1000 nM | < 1000 nM | 
10 | N#Cc1ccc(O[C@H]2CC[C@H](NC(=O)c3ncc(N4CCC(CN5CCc6c(ccc7c(C8CCC(=O)NC8=O)noc67)C5)CC4)cn3)CC2)cc1Cl (stereo partly shown) [Compound 146] | < 1000 nM | < 1000 nM | 
11 | N#Cc1ccc(O[C@H]2CC[C@H](NC(=O)c3cnc(N4CCC(CN5Cc6ccc7c(C8CCC(=O)NC8=O)coc7c6C5)CC4)nc3)CC2)cc1Cl (stereo partly shown) [Compound 132] | < 1000 nM | < 1000 nM | 
12 | N#Cc1ccc(O[C@H]2CC[C@H](NC(=O)c3cnc(C4CCN(C5CN(CC6Cc7ccc8c(C9CCC(=O)NC9=O)coc8c7C6)C5)CC4)nc3)CC2)cc1Cl (stereo partly shown) [Compound 111] | < 1000 nM |  | IC50 [4]: < 100 nM
13 | N#Cc1ccc(O[C@H]2CC[C@H](NC(=O)c3cnc(N4CCN(CC5Cc6ccc7c(C8CCC(=O)NC8=O)coc7c6C5)CC4)nc3)CC2)cc1Cl (stereo partly shown) [Compound 136] | < 1000 nM | < 1000 nM | 
14 | N#Cc1ccc(O[C@H]2CC[C@H](NC(=O)c3cnc(N4CCC5(CC4)CC(CN4CCc6ccc7c(C8CCC(=O)NC8=O)noc7c6C4)C5)nc3)CC2)cc1Cl (stereo partly shown) [Compound 129] | < 1000 nM | < 100 nM | 
15 | N#Cc1ccc(O[C@H]2CC[C@H](NC(=O)c3cnc(N4CCC5(CC4)CC(CN4CCc6c(ccc7c(C8CCC(=O)NC8=O)noc67)C4)C5)nc3)CC2)cc1Cl (stereo partly shown) [Compound 130] | < 1000 nM | < 100 nM | 
16 | N#Cc1ccc(O[C@H]2CC[C@H](NC(=O)c3cnc(N4CCC5(CC4)CC(CN4CCc6ccc7c(C8CCC(=O)NC8=O)noc7c6CC4)C5)nc3)CC2)cc1Cl (stereo partly shown) [Compound 131] | < 1000 nM | < 100 nM | 
17 | N#Cc1ccc(O[C@H]2CC[C@H](NC(=O)c3ccc(N4CCC(N5CC(CN6CCc7ccc8c(C9CCC(=O)NC9=O)coc8c7CC6)C5)CC4)nn3)CC2)cc1Cl (stereo partly shown) [Compound 99] | < 1000 nM | < 100 nM | 
18 | N#Cc1ccc(O[C@H]2CC[C@H](NC(=O)c3cnc(N4CCC(CN5CCc6c(ccc7c(C8CCC(=O)NC8=O)coc67)C5)CC4)nc3)CC2)cc1Cl (stereo partly shown) [Compound 134] | < 1000 nM | < 100 nM | 
